Assay results: publication PMC9853864, “Nonspecific Binding of Adenosine Tripolyphosphate and Tripolyphosphate Modulates the Phase Behavior of Lysozyme” (Journal of the American Chemical Society, 2023)

Biological target: T1, hen egg-white lysozyme (HEWL); chicken egg lysozyme (Gallus gallus, UniProt P00698)
T1 construct: gene LYZ
Test: 1H NMR titration, Trp imino CSP (W62, W111, W123), […] fit
Type: binding

T1 sequence (P00698 19-147): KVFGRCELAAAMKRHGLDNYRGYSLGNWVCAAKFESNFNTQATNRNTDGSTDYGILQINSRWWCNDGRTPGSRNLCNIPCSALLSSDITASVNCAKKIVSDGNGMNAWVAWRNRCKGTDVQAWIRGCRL

O=P(O)(O)OP(=O)(O)OP(=O)(O)O [TPP]
Kd: ~1000 µM
